Where “and” joins values, the source holds several entries; their conditions need not be identical. Equal values may be shown once.
How the values were obtained:
Format in all cases: cell-based, human
IRF4 = IRF4 protein level in HMCLs by flow cytometry; conditions: 1 μM EPZ-6438 4 days, then 2 days with or without 2 μM lenalidomide
Procedure: (§1) The expression of IKZF1, c-Myc and IRF4 in HMCLs was evaluated by flow cytometry using PE-conjugated anti-IKZFL anti-MYC and anti-IRF4 mAb and isotype matched PE-conjugated mAb. Data are mean values±standard deviation (SD) of three experiments.
(§2) The expression of IKZF1, c-Myc and IRF4 in HMCLs was evaluated by flow cytometry using PE-conjugated anti-IKZF1, anti-MYC and anti-IRF4 mAb and isotype matched PE-conjugated mAb. IKZF1 expression was assessed by immunofluorescence using an anti-IKZF1 primary antibody and an AF555-conjugated secondary antibody and further plotted onto a graph.
(§3) Cells were fixed for 10 min with Cytofix/Cytoperm (BD BIOSCIENCES®) at 4° C.
(§4) IMiDs promote Ikaros and Aiolos transcription factors binding to the E3 ubiquitin ligase cereblon (CRBN) leading to Ikaros and Aiolos ubiquitination and proteasomal degradation. Ikaros and Aiolos degradation are associated with a downregulation of Interferon regulatory factor 4 (IRF4) and MYC playing an essential role in MMC survival.

MYC = MYC protein level in HMCLs by flow cytometry; conditions: 1 μM EPZ-6438 4 days, then 2 days with or without 2 μM lenalidomide
Procedure: as §1, §2, §3, §4

HMCLs [1] = experiment: Sublethal dose (IC10) of Decitabine on HMCLs
Procedure: To assess the potential synergistic effect of the inhibition of these two repressive mechanisms, we tested the combination of a sublethal dose of Decitabine (100 nM, IC10) with EPZ-6438 (1 μM) on two EPZ-6438-resistant HMCLs. […] Therefore, DNA hypomethylation can collaborate with EZH2 inhibition to block MM cell growth.

HMCLs [2] = experiment: Sensitivity of HMCLs with high or low EZ score to EPZ-6438, cell growth assay; conditions: 1 μM EPZ-6438, 8 days; P=0.04
Procedure: FIG. 3A: EZ score predicts for sensitivity of HMCLs and primary MMCs to EZH2 inhibitor. […] Human myeloma cell lines were cultured for 8 days in 96-well flat-bottom microtiter plates in RPMI 1640 medium, 10% fetal calf serum, 2 ng/ml IL-6 culture medium (control) and 1 μM EPZ-6438. Data are mean values±standard deviation (s.d.) of five experiments determined.
HMCLs were cultured for 15 days in RPMI 1640 medium, 10% FCS, and 2 ng/ml IL-6 (control medium) in the presence of EPZ-6438 ([…]®). Cell concentration and viability were assessed using trypan blue dye exclusion test. The number of metabolic-active was also determined using intracellular ATP quantitation. […] Cell growth was evaluated by quantifying intracellular ATP amount with a Cell Titer Glo Luminescent Assay (PROMEGA®, Madison, Wis.) using a Centro LB 960 luminometer (BERTHOLD TECHNOLOGIES®, Bad Wildbad, Germany).
It was then sought to validate whether the EZ-score could predict for the sensitivity of 10 HMCLs to EPZ-6438. Starting from the large cohort of 40 HMCLs, the response of 5 HMCLs with a high EZ score and 5 HMCLs with a low EZ score to EPZ-6438 EZH2 inhibitor was analyzed.

primary MMCs = experiment: Sensitivity of patients' primary MMCs to EPZ-6438, 8-day culture, viable MMC count by CD138 flow cytometry; conditions: primary MMCs of 14 MM patients, one table row per patient; 1 μM EPZ-6438, 8 days, IL-6; in % (unit assumed)
Procedure: FIG. 3B: EZ score predicts for sensitivity of HMCLs and primary MMCs to EZH2 inhibitor. EZ score predicts for EPZ-6438 sensitivity of primary myeloma cells of patients. Mononuclear cells from tumor samples of 14 patients with MM were cultured for 8 days in the presence of IL-6 (2 ng/ml) with or without 1 μM EPZ-6438. At day 8 of culture, the count of viable MMCs was determined using CD138 staining by flow cytometry.
Bone marrow samples were collected after patients' written informed consent in accordance with the Declaration of Helsinki and institutional research board approval from Heidelberg and Montpellier University hospital. […] The structural chromosomal aberrations including t(4; 14)(p16.3; q32.3) and t(11; 14)(q13; q32.3), as well as numerical aberrations including 17p13 and 1q21 gain, were assayed by fluorescence in situ hybridization (iFISH). […] As iFISH data are not available for UAMS-TT2 patients, t(4; 14) translocation was evaluated using MMSET spike expression and del17p13 surrogated by TP53 probe set signal. […]
The inventors have determined that a set of 5 genes that are differentially expressed in a cohort of 14 MM individuals is associated with a prognostic value of their responsiveness to the EZH2 inhibitor EPZ-6438, as shown in Table 2 below. […]

IKZF1 = IKZF1 protein level in HMCLs by flow cytometry; conditions: 1 μM EPZ-6438 4 days, then 2 days with or without 2 μM lenalidomide
Procedure: as §1, §2, §3, §4

[3] = test system: LP1 and XG19 lenalidomide sensitive cell lines; experiment: Lenalidomide sensitivity of HMCLs after EPZ-6438 pretreatment, cell growth assay; conditions: 4 days 1 uM EPZ-6438 prior to lenalidomide, P<0.05
Procedure: HMCLs were cultured for 15 days in RPMI 1640 medium, 10% FCS, and 2 ng/ml IL-6 (control medium) in the presence of EPZ-6438 ([…] ®). Cell concentration and viability were assessed using trypan blue dye exclusion test. The number of metabolic-active was also determined using intracellular ATP quantitation.

Compound | IRF4 protein level inhibition (IRF4) | MYC protein level inhibition (MYC) | IC10 (HMCLs [1]) | median higher EPZ-6438 sensitivity, 5 HMCLs with highest EZ score compared to 5 HMCLs with low EZ-score (HMCLs [2]) | Response (primary MMCs) | IKZF1 protein level inhibition (IKZF1) | sensitization of myeloma cell lines to lenalidomide treatment [3]
Nc1cccc2c1CN(C1CCC(=O)NC1=O)C2=O (stereo not drawn) [lenalidomide] | 43% | 2.2% | – | – | – | – | –
Nc1ncn([C@H]2C[C@H](O)[C@@H](CO)O2)c(=O)n1 [Decitabine] | – | – | 100 nM | – | – | – | –
CCN(c1cc(-c2ccc(CN3CCOCC3)cc2)cc(C(=O)NCc2c(C)cc(C)[nH]c2=O)c1C)C1CCOCC1 [EPZ-6438, EPZ-6438 (Tazemetostat)] | 38.7% | 6.2% | – | 20 fold | 64.15 and 46.39 and 53.41 and 61.33 and 72.61 and 112.5 and 84.96 and 118 and 79.27 and 77.76 and 101.43 and 73.09 and 66.53 and 72.01 | 45.2% | significantly sensitize

Source: US11578369B2, “Method for the in vitro prognosis of individuals having multiple myeloma and method for the treatment thereof” (CENTRE NATIONAL DE LA RECHERCHE SCIENTIFIQUE, priority 2016, dated 2023)
